According to ChEMBL document CHEMBL3861964, “Bioassay-Guided Isolation of Prenylated Xanthone Derivatives from the Leaves of Garcinia oligantha” (J Nat Prod, 2016):

Columns and labels:
[1] = cells; conditions: Homo sapiens, HT-29, 72 h
Description: Cytotoxicity against human HT-29 cells assessed as reduction in cell viability after 72 hrs by MTT assay

[2] = Cytotoxicity against human A549 cells assessed as reduction in cell viability after 72 hrs by MTT assay; assay type: functional, cell-based; conditions: A549, 72 h
[3] = Cytotoxicity against human HepG2 cells assessed as reduction in cell viability after 72 hrs by MTT assay; assay type: functional, cell-based; conditions: HepG2, 72 h
[4] = Cytotoxicity against human HL-7702 cells assessed as reduction in cell viability after 72 hrs by MTT assay; assay type: toxicity, cell-based, L02
[5] = Cytotoxicity against human PC3 cells assessed as reduction in cell viability after 72 hrs by MTT assay; assay type: functional, cell-based; conditions: PC-3, 72 h

IC50 [1] [µM]	SMILES	IC50 [2] [µM]	IC50 [3] [µM]	IC50 at 72 h [4] [µM]	IC50 [5] [µM]
2.3	CO[C@]12C=C3C(=O)c4c(O)c(CC=C(C)C)c(O)c(CC=C(C)C)c4O[C@]34C(C1)C(C)(C)O[C@]4(CC=C(C)C)C2=O	2.9	2.9	3.1	2.3
> 10	C=C(C)[C@H]1C[C@](C/C=C(\C)CCC=C(C)C)(C(=O)O)c2c(oc3c(CC=C(C)C)c(O)cc(O)c3c2=O)[C@@H]1O	> 10	> 10	–	> 10
> 10	CC(C)=CCC1=C(O)C(=O)C(CC=C(C)C)(CC=C(C)C)c2c1oc1cc(O)cc(O)c1c2=O	> 10	> 10	–	> 10
4.1	CC(C)=CCC1(CC=C(C)C)C(=O)C(O)=C(O)c2oc3c4c(cc(O)c3c(=O)c21)OC(C)(C)C=C4	5.5	6.2	6.4	3.2
> 10	CC(C)=CCC/C(C)=C/C[C@]1(C(=O)O)CC(=C(C)C)C(=O)c2oc3c(CC=C(C)C)c(O)cc(O)c3c(=O)c21	> 10	> 10	–	> 10
> 10	CC(C)=CCc1cc(C(C)C)c(O)c2oc3c4c(cc(O)c3c(=O)c12)OC(C)(C)C=C4	> 10	> 10	–	> 10
6.4	CC(C)=CCC/C(C)=C/C[C@@]1(CC=C(C)C)C(=O)C(O)=C(O)c2oc3c4c(cc(O)c3c(=O)c21)OC(C)(C)C=C4	5	> 10	> 10	5.9
2.2	CO[C@]12C=C3C(=O)c4c(O)cc(O)c(CC=C(C)C)c4O[C@]34C(C1)C(C)(C)O[C@]4(CC=C(C)C)C2=O	3	2.8	2.5	2.1
> 10	CC(C)=CCc1c(O)cc(O)c2c(=O)c3c(oc12)C(CC=C(C)C)(CC=C(C)C)C(=O)C(O)=C3	> 10	> 10	–	> 10
> 10	CC(C)=CCc1c(O)c(O)c(O)c2oc3c4c(cc(O)c3c(=O)c12)OC(C)(C)C=C4	> 10	> 10	–	> 10
4.8	CO[C@@]12C=C3C(=O)c4c(O)cc5c(c4O[C@@]34[C@@H]1C(C)(C)O[C@@]4(CC=C(C)C)C2=O)C=CC(C)(C)O5	3.9	4.5	8.6	4.6
> 10	CC(C)=CCC1(C(=O)O)CC(=C(C)C)C(=O)c2oc3c4c(cc(O)c3c(=O)c21)OC(C)(C)C=C4 (racemic)	> 10	> 10	–	> 10
–	CC(=O)O[C@H]1C(=O)[C@@]2(C)[C@H]([C@H](OC(=O)c3ccccc3)[C@]3(O)C[C@H](OC(=O)[C@H](O)[C@@H](NC(=O)c4ccccc4)c4ccccc4)C(C)=C1C3(C)C)[C@]1(OC(C)=O)CO[C@@H]1C[C@@H]2O [PACLITAXEL]	0.08	0.2	0.06	0.03
